Experimental data reported in US8552002B2 (Novartis AG, priority 2004, dated 2013).

Experiments:
[1] = biological target: PDGFRβ (Homo sapiens, UniProt P09619); assay: Inhibition of PDGFRβ; assay type: biochemical
Description: Compounds selectively inhibiting the proliferation of these BCR-Abl transformed cells are tested for anti-proliferative activity on Ba/F3 cells expressing either wild type or the mutant forms of Bcr-abl. In addition, compounds are assayed to measure their capacity to inhibit FGFR35 (in an enzyme and cellular assay), FLT3, PDGFRβ, trkB, c-SRC, BMX, SGK, Tie2, Lck, JNK2α2, MKK4, c-RAF, MKK6, SAPK2α and SAPK2β kinases.

[2] = biological target: FGFR35 (Homo sapiens, UniProt P22607); assay: FGFR35 (enzymatic assay), HTRF; assay type: biochemical; parameters: purchased Upstate; conditions: purified FGFR35, 3 μM ATP; read-out: IC50 for the FGFR35 enzyme assay
FGFR35, sequence (P22607 23-806): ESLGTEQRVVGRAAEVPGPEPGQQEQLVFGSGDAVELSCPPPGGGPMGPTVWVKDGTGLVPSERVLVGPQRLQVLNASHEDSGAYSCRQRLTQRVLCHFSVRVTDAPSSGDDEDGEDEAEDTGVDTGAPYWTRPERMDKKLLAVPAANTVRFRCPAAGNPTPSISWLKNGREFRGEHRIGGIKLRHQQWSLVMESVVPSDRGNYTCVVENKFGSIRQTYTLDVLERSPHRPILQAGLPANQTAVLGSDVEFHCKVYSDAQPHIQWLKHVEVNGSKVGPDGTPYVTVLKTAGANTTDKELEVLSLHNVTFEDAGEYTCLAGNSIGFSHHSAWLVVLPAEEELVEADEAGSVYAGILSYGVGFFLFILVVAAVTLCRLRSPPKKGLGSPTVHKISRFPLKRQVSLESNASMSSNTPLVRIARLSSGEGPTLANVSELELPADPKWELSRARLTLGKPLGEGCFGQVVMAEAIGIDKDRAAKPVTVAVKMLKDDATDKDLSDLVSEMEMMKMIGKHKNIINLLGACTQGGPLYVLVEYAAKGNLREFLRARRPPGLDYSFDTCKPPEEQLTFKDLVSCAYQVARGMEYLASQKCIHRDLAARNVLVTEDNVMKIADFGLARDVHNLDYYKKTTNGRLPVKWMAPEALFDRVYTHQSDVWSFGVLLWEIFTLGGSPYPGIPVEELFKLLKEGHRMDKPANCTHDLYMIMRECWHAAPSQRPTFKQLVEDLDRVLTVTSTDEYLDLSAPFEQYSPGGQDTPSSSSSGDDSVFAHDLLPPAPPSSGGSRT
Description: Kinase activity assay with purified FGFR35 (Upstate) is carried out in a final volume of 10 μL containing 0.25 μg/mL of enzyme in kinase buffer (30 mM Tris-HCl pH7.5, 15 mM MgCl2, 4.5 mM MnCl2, 15 μM Na3VO4 and 50 μg/mL BSA), and substrates (5 μg/mL biotin-poly-EY(Glu, Tyr) (CIS-US, Inc.) and 3 μM ATP). Two solutions are made: the first solution of 5 μl contains the FGFR35 enzyme in kinase buffer was first dispensed into 384—format ProxiPlate® (Perkin-Elmer) followed by adding 50 nL of compounds dissolved in DMSO, then 5 μl of second solution contains the substrate (poly-EY) and ATP in kinase buffer was added to each wells. The reactions are incubated at room temperature for one hour, stopped by adding 10 μL of HTRF detection mixture, which contains 30 mM Tris-HCl pH7.5, 0.5 M KF, 50 mM ETDA, 0.2 mg/mL BSA, 15 μg/mL streptavidin-XL665 (CIS-US, Inc.) and 150 ng/mL cryptate conjugated anti-phosphotyrosine antibody (CIS-US, Inc.). After one hour of room temperature incubation to allow for streptavidin-biotin interaction, time resolved florescent signals are read on Analyst GT (Molecular Devices Corp.). IC50 values are calculated by linear regression analysis of the percentage inhibition of each compound at 12 concentrations (1:3 dilution from 50 μM to 0.28 nM).

[3] = biological target: T1, wild type Bcr-abl (Homo sapiens, UniProt P00519); assay: Antiproliferative effect on cells expressing wild type Bcr-abl; assay type: cell-based; conditions: cell proliferation
T1 construct: the major C-terminal part (exons 2-11) of the c-abl gene; expressed in transfected cells; host or cells: murine 32D (32D-p210) or Ba/F3 cells; the other entry of the earlier key: BCR (P11274, Breakpoint cluster region protein)
T1 sequence (P00519 with tags, fused parts or gaps): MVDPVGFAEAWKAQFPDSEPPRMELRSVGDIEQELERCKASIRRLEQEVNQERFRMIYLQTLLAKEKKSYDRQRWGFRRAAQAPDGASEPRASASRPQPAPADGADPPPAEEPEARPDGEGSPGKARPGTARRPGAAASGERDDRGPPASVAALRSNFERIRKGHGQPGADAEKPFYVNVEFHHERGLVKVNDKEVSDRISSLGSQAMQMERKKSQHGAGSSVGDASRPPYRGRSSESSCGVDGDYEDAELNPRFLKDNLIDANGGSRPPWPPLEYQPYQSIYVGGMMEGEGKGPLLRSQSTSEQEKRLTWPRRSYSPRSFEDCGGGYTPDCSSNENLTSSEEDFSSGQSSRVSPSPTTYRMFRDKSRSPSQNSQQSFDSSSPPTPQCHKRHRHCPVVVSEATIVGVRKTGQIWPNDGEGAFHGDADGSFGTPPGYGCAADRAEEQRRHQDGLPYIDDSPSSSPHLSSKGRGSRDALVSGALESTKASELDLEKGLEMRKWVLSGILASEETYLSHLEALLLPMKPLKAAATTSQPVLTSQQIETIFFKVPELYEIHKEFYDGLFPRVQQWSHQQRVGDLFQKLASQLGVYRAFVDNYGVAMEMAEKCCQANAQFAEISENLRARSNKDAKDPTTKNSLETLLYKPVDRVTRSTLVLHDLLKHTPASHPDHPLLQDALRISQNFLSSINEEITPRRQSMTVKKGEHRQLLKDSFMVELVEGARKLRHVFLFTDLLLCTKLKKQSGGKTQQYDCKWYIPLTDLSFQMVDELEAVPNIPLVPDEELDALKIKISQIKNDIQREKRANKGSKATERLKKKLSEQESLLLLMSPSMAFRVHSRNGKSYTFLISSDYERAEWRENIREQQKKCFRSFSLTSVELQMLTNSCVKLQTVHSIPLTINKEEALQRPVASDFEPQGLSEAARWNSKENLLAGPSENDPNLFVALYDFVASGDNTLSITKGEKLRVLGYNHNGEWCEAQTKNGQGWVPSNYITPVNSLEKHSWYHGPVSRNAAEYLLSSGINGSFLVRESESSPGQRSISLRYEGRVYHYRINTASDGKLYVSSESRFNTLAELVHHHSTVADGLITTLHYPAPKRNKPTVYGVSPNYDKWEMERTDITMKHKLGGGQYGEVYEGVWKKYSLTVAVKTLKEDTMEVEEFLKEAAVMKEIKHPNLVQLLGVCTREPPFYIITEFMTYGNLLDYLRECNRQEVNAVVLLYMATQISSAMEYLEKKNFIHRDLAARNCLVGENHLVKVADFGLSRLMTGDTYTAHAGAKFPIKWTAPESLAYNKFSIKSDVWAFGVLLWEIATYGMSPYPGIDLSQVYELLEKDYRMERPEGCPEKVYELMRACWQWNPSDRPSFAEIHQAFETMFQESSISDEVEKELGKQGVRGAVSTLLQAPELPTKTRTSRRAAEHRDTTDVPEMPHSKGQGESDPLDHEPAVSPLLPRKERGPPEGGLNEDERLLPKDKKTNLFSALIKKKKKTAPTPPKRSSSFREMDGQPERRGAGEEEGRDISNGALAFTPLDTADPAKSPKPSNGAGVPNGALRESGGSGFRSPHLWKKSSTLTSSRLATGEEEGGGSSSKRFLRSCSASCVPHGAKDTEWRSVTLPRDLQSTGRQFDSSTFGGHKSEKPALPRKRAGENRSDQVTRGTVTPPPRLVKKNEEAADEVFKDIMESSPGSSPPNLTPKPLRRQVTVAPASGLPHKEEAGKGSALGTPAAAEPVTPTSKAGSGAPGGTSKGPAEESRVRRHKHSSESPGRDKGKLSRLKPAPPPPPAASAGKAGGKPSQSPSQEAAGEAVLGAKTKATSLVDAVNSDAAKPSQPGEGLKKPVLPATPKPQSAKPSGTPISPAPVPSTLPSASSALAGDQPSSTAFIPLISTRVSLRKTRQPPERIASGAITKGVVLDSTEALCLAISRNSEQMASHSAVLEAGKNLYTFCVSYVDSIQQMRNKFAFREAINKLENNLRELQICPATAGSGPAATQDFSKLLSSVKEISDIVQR
Description: 32D-p210 cells are plated into 96 well TC plates at a density of 15,000 cells per well. 50 μL of two fold serial dilutions of the test compound (Cmax is 40 μM) are added to each well (STI571 is included as a positive control). After incubating the cells for 48 hours at 37° C., 5% CO2, 15 μL of MTT (Promega) is added to each well and the cells are incubated for an additional 5 hours. The optical density at 570 nm is quantified spectrophotometrically and IC50 values, the concentration of compound required for 50% inhibition, determined from a dose response curve.
Compounds of the invention are tested for their antiproliferative effect on Ba/F3 cells expressing either wild type or the mutant forms of BCR-Abl (G250E, E255V, T315I, F317L, M351T) that confers resistance or diminished sensitivity to STI571. The antiproliferative effect of these compounds on the mutant-BCR-Abl expressing cells and on the non transformed cells were tested at 10, 3.3, 1.1 and 0.37 μM as described above (in media lacking IL3). The IC50 values of the compounds lacking toxicity on the untransformed cells were determined from the dose response curves obtained as describe above.

PDGFRβ, sequence (P09619 33-1106, species assumed): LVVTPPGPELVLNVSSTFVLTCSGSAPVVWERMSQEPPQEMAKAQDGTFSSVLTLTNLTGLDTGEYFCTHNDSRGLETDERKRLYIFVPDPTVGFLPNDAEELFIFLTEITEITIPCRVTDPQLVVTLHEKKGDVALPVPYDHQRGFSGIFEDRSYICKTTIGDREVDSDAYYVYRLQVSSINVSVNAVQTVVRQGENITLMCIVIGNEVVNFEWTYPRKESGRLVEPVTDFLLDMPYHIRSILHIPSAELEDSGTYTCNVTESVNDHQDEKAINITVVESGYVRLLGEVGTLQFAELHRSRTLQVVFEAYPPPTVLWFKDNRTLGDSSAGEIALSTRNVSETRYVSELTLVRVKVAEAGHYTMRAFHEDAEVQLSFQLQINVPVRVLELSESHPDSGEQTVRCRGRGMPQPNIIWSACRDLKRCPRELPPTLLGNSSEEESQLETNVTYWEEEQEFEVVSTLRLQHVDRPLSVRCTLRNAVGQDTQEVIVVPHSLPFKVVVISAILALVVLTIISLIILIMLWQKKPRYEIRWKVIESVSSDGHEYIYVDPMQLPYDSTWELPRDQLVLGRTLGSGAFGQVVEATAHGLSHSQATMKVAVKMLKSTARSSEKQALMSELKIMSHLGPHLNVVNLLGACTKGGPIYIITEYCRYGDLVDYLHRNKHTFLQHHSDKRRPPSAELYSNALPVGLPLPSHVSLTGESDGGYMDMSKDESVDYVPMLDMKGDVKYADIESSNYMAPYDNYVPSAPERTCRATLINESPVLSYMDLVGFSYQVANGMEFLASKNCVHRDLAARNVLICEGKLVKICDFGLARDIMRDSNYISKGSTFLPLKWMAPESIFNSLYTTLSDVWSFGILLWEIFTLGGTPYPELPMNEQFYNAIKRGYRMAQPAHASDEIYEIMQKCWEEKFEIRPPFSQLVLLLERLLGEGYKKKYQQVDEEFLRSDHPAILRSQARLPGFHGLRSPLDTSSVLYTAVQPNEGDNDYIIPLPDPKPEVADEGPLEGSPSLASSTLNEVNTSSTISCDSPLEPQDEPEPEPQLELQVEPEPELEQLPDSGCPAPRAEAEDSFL

IC50 [1]: 2 nM | IC50 [2]: 16 nM | IC50 [3]: 10 nM
Structure (SMILES): Cc1ccc(NC(=O)c2cccc(C(F)(F)F)c2)cc1NC(=O)N(CCCN1CCCC1=O)c1cc(N)ncn1 [Example 215, N-(3-{3-(6-Amino-pyrimidin-4-yl)-3-[3-(2-oxo-pyrrolidin-1-yl)-propyl]-ureido}-4-methyl-phenyl)-3-trifluoromethyl-benzamide]
